In patent US11053226B2, “KRAS G12C inhibitors and methods of using the same” (Amgen Inc., priority 2018, dated 2021):
Read-outs that look alike come from different tables or passages of the source.

Key:
[1] = target: GDP-bound KRAS protein (aa 1-169), containing both G12C and C118A amino acid substitutions (Homo sapiens (Human), UniProt P01116, C118A/G12C); assay: Coupled Nucleotide Exchange Assay; assay type: biochemical
Procedure: For compounds in Table 9, the following assay conditions were employed:
Coupled Nucleotide Exchange Assay:
The assay plates were then read on a PerkinElmer EnVision Multilabel Reader, using AlphaScreen® technology, and data were analyzed using a 4-parameter logistic model to calculate IC50 values.

[2] = test system: Phosphorylation of ERK1/2 in MIA PaCa-2 cells; assay: Phospho-ERK1/2 MSD Assay; assay type: cell-based; conditions: Homo sapiens, MiaPaCa-2 cells
[3] = test system: Phosphorylation of ERK1/2 in A549 cells; assay: Phospho-ERK1/2 MSD Assay (A549); assay type: cell-based; conditions: Homo sapiens
[4] = read-out: Coupled Exchange IC50 (2 h), 2 h compound pre-incubation
[5] = read-out: Coupled Exchange IC50 (20 h), 20 h compound pre-incubation
[6] = MIA PaCa-2, read-out: pERK IC50 (4 h), 4 h compound treatment
[7] = read-out: pERK IC50 (4 h), 4 h compound treatment
[8] = MIA PaCa-2, 4 h, read-out: pERK IC50 (4 h, MiaPaCa-2), 4 h compound treatment
[9] = A549, 4 h, read-out: pERK IC50 (4 h, A549), 4 h compound treatment
[10] = read-out: Coupled Exchange IC50 (5 min), 5 min compound pre-incubation

Chain of GDP-bound KRAS protein (aa 1-169), containing both G12C and C118A amino acid substitutions (P01116 other isoform, or with tags, fused parts or gaps G12C/C118A): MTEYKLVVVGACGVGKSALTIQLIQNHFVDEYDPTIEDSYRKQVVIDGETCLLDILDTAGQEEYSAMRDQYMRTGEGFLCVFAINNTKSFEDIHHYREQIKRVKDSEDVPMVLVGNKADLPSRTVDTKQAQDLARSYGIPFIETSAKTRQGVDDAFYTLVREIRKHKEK

Row | Compound | IC50 [1, 4] [µM] | IC50 [1, 5] [µM] | IC50 [2, 6] [µM] | IC50 [3, 7] [µM] | IC50 [2, 8] [µM] | IC50 [3, 9] [µM] | IC50 [1, 10] [µM]
1 | C=CC(=O)N1CC(NC(=O)Cn2ccc3cc(Cl)cc(Cl)c32)C1 [Example 165] | 13.2 | 2.65 | > 100 | > 100 |  |  | 
2 | C=CC(=O)N1CC(NC(=O)Cn2c(C)c(C(=O)N3[C@H](C)CN(c4ccc(C#N)cn4)C[C@H]3C)c3cc(Br)ccc32)C1 [Example 22] | 0.19 |  |  |  | 2.02 | > 100 | 
3 | C=CC(=O)N1CC(N(C)C(=O)Cn2c(CC3CC3)c(C(=O)N3CCc4c(cccc4OC)C3)c3cc(Cl)cc(C)c32)C1 [Example 4-4, 2-(5-Chloro-2-(cyclopropylmethyl)-3-((5-methoxy-3,4-dihydro-2(1H)-isoquinolinyl)carbonyl)-7-methyl-1H-indol-1-yl)-N-methyl-N-(1-(2-propenoyl)-3-azetidinyl)acetamide] | 0.1 |  |  |  | 0.18 | 29.3 | 
4 | C=CC(=O)N1CC(N(C)C(=O)Cn2c(C)c(C(=O)N3CCc4c(cccc4OC)C3)c3cc(Cl)ccc32)C1 [Example 33] | 0.21 | 0.13 |  |  | 2.8 | > 100 | 
5 | C=CC(=O)N1CC(NC(=O)Cn2cc(C(=O)NCCC(=O)Nc3cccc4ccccc34)c3cc(Br)ccc32)C1 [Example 170] | 3 | 0.65 |  |  | > 100 | > 100 | 
6 | C=CC(=O)N1CC(NC(=O)Cn2cc(C(=O)N3CCc4c(C)cccc4C3)c3cc(Br)cc(C)c32)C1 [Example 94] | 0.21 | 0.13 |  |  | 16.6 | > 100 | 
7 | C=CC(=O)N1CC(NC(=O)Cn2cc(Br)c3cc(Cl)cc(C)c32)C1 [Example 91] | 3.18 | 0.37 | 16.3 | > 100 |  |  | 
8 | C=CC(=O)N1CC(NC(=O)Cn2cc(-c3ccccc3-c3ccccc3)c3cc(Cl)ccc32)C1 [Example 112] | 2.36 | 0.71 | 25.9 | > 100 |  |  | 3.95
9 | C=CC(=O)N1CC(NC(=O)Cn2cc(-c3cccnc3OC(C)C)c3cc(Br)ccc32)C1 [Example 105] | 6.45 |  | 22 | 11.3 |  |  | 
10 | C=CC(=O)N1CC(NC(=O)Cn2c(C)c(-c3ccccc3N(C)C)c3cc(Cl)ccc32)C1 [Example 98] | 1.12 |  | 18.2 | 13.2 |  |  | 
11 | C=CC(=O)N1CC(NC(=O)Cn2cc(-c3c(C)ccc4cn[nH]c34)c3cc(Br)ccc32)C1 [Example 130] | 4.49 | 1.02 | 37 | 50.1 |  |  | 
12 | C=CC(=O)N1CC(NC(=O)Cn2cc(CNCc3ccccc3)c3cc(Br)ccc32)C1 [Example 136] | 9.85 | 1.91 | 39.6 | 36.6 |  |  | 
13 | C=CC(=O)N1CC(NC(=O)Cn2cc(CN3CCc4ccccc4C3)c3cc(Br)ccc32)C1 [Example 145] | 5.7 | 1.12 | 46.9 | 50.9 |  |  | 
14 | C=CC(=O)N1CC(NC(=O)Cn2cc(C(=O)N3CCc4c(C)cccc4C3)c3cc(Cl)cc(Cl)c32)C1 [Example 74] | 0.22 | 0.17 |  |  | 11.1 | > 100 | 
15 | C=CC(=O)N1CC(NC(=O)Cn2c(CC3CC3)c(C(=O)N3CCc4c(cccc4OC)C3)c3cc(Cl)cc(C)c32)C1 [Example 1-5, 2-(5-Chloro-2-(cyclopropylmethyl)-3-((5-methoxy-3,4-dihydro-2(1H)-isoquinolinyl)carbonyl)-7-methyl-1H-indol-1-yl)-N-(1-(2-propenoyl)-3-azetidinyl)acetamide] | 0.08 |  |  |  | 0.15 | > 100 | 
16 | C=CC(=O)N1CC(NC(=O)Cn2cc(C(=O)N3CCc4c(cccc4OC)C3)c3cc(Br)ccc32)C1 [Example 76] | 0.64 | 0.17 |  |  | 11.4 | > 100 | 
17 | C=CC(=O)N1CC(NC(=O)Cn2c(C)c(-c3ccccc3OC)c3cc(Cl)ccc32)C1 [Example 125] | 2.75 |  | 33.6 | > 100 |  |  | 
18 | C=CC(=O)N1CC(NC(=O)Cn2cc(I)c3cc([N+](=O)[O-])ccc32)C1 [Example 128] | 7.24 | 1.18 | 35.6 | > 100 |  |  | > 250
